According to US9169254B2, “Spiroimidazolone derivative” (Chugai Seiyaku Kabushiki Kaisha, priority 2009, dated 2015):

Target: T1, human PTH1 receptor (Homo sapiens, UniProt Q03431)
T1 sequence (Q03431 27-593): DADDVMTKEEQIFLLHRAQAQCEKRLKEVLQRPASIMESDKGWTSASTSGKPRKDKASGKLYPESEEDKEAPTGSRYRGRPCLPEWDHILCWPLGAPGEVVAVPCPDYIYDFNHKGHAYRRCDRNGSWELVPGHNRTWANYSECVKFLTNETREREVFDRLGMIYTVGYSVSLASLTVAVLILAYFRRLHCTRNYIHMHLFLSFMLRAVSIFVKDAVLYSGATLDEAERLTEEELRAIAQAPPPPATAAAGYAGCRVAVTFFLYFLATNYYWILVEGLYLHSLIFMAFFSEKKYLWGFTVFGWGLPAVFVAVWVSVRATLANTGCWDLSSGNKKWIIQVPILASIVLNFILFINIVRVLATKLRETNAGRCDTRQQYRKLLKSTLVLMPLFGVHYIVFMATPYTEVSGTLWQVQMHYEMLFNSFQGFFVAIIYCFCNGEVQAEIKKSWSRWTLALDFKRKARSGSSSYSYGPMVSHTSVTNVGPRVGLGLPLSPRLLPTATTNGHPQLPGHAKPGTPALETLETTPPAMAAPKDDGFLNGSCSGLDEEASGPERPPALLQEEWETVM
Experiment: In vitro cAMP signal activity in HKRK-B7 cells (LLC-PK1 cells overexpressing the human PTH1 receptor)
Format: cell-based
Details: HKRK-B7 cells; compound at 1×10^−3 M; cAMP produced as percentage of that produced by hPTH(1-34) at 100 nM

SMILES	cAMP production activity (%)
Cc1cc(S(=O)(=O)NCC(=O)N(C)C)ccc1/C=C/S(=O)(=O)N1CCC2(CC1)N=C(c1cccc(C(F)(F)F)c1)NC2=O [Compound 590, N,N-Dimethyl-2-(3-methyl-4-{(E)-2-[4-oxo-2-(3-trifluoromethyl-phenyl)-1,3,8-triaza-spiro[4.5]dec-1-ene-8-sulfonyl]-vinyl}-benzenesulfonylamino)-acetamide]	70%
O=C1NC(C2CCCCC2)=NC12CCN(S(=O)(=O)/C=C/c1cccc3c1ccn3CCCCO)CC2 [Compound 478, 2-cyclohexyl-8-{(E)-2-[1-(4-hydroxy-butyl)-1H-indol-4-yl]-ethenesulfonyl}-1,3,8-triaza-spiro[4.5]dec-1-en-4-one]	33%
[2H]C([2H])([2H])C([2H])(Oc1cc(C2=NC3(CCN(S(=O)(=O)/C=C/c4c(C)cc(C(=O)N5CCC(C)(O)CC5)cc4C)CC3)C(=O)N2)ccc1F)C([2H])([2H])[2H] [Compound 1225, 2-(4-fluoro-3-[1,2,2,2,2,2,2-^2H7]isopropoxy-phenyl)-8-{(E)-2-[4-(4-hydroxy-4-methyl-piperidine-1-carbonyl)-2,6-dimethyl-phenyl]-ethenesulfonyl}-1,3,8-triaza-spiro[4.5]dec-1-en-4-one]	90%
Cc1cc(C(=O)N2CCC(C)(O)CC2)cc(C)c1/C=C/S(=O)(=O)N1CCC2(CC1)N=C(c1cccc(COc3cccc(C(F)(F)F)c3)c1)NC2=O [Compound 1205, 8-{(E)-2-[4-(4-hydroxy-4-methyl-piperidine-1-carbonyl)-2,6-dimethyl-phenyl]-ethenesulfonyl}-2-[3-(3-trifluoromethyl-phenoxymethyl)-phenyl]-1,3,8-triaza-spiro[4.5]dec-1-en-4-one]	83%
Cc1cc(C(=O)N2CCC(O)(CF)CC2)cc(C)c1/C=C/S(=O)(=O)N1CCC2(CC1)N=C(c1ccc(OCC(F)(F)F)c(F)c1)NC2=O [Compound 1260, 8-{(E)-2-[4-(4-fluoromethyl-4-hydroxy-piperidine-1-carbonyl)-2,6-dimethyl-phenyl]-ethenesulfonyl}-2-[3-fluoro-4-(2,2,2-trifluoro-ethoxy)-phenyl]-1,3,8-triaza-spiro[4.5]dec-1-en-4-one]	81%
Cc1cc(C(=O)N2CCCC2)ccc1/C=C/S(=O)(=O)N1CCC2(CC1)N=C(c1ccc(F)c(C(F)(F)F)c1)NC2=O [Compound 619, 2-(4-Fluoro-3-trifluoromethyl-phenyl)-8-{(E)-2-[2-methyl-4-(pyrrolidine-1-carbonyl)-phenyl]-ethenesulfonyl}-1,3,8-triaza-spiro[4.5]dec-1-en-4-one]	61%
Cc1cc(N2C(=O)CNC2=O)cc(C)c1CCS(=O)(=O)N1CCC2(CC1)N=C(C1CCC(C)CC1)NC2=O (centres unmarked) [Compound 883, 3-(3,5-dimethyl-4-{2-[2-(4-methyl-cyclohexyl)-4-oxo-1,3,8-triaza-spiro[4.5]dec-1-ene-8-sulfonyl]-ethyl}-phenyl)-imidazolidine-2,4-dione]	56%
Cc1cc(C(=O)N(C)C)ccc1CCS(=O)(=O)N1CCC2(CC1)N=C(c1ccc(Cl)cc1)NC2=O [Compound 87, 4-{2-[2-(4-chloro-phenyl)-4-oxo-1,3,8-triaza-spiro[4.5]dec-1-ene-8-sulfonyl]-ethyl}-3,N,N-trimethyl-benzamide]	6.7%
Cc1cc(N(CCO)C(=O)C(C)C)ccc1CCS(=O)(=O)N1CCC2(CC1)N=C(c1cccc(OC(F)(F)F)c1)NC2=O [Compound 929, N-(2-Hydroxy-ethyl)-N-(3-methyl-4-{2-[4-oxo-2-(3-trifluoromethoxy-phenyl)-1,3,8-triaza-spiro[4.5]dec-1-ene-8-sulfonyl]-ethyl}-phenyl)-isobutylamide]	76%
Cc1ccc(C(=O)N(C)CCO)cc1CCS(=O)(=O)N1CCC2(CC1)N=C(c1cccc(OC(F)(F)F)c1)NC2=O [Compound 413, N-(2-hydroxy-ethyl)-4,N-dimethyl-3-{2-[4-oxo-2-(3-trifluoromethoxy-phenyl)-1,3,8-triaza-spiro[4.5]dec-1-ene-8-sulfonyl]-ethyl}-benzamide]	56%
COc1ccc(-c2ccccc2CCS(=O)(=O)N2CCC3(CC2)N=C(C2CCCCC2)NC3=O)cn1 [Compound 339, 2-cyclohexyl-8-{2-[2-(6-methoxy-pyridin-3-yl)-phenyl]-ethanesulfonyl}-1,3,8-triaza-spiro[4.5]dec-1-en-4-one]	66%
Cc1cc(C(=O)N2CC(F)C2)ccc1CCS(=O)(=O)N1CCC2(CC1)N=C(c1cccc(C(F)(F)F)c1)NC2=O [Compound 379, 8-{2-[4-(3-fluoro-azetidine-1-carbonyl)-2-methyl-phenyl]-ethanesulfonyl}-2-(3-trifluoromethyl-phenyl)-1,3,8-triaza-spiro[4.5]dec-1-en-4-one]	59%
Cc1cc(C(=O)N(C)C)ccc1CCS(=O)(=O)N1CCC2(CC1)N=C(c1cccc(COCC(F)F)c1)NC2=O [Compound 169, 4-(2-{2-[3-(2,2-difluoro-ethoxymethyl)-phenyl]-4-oxo-1,3,8-triaza-spiro[4.5]dec-1-ene-8-sulfonyl}-ethyl)-3,N,N-trimethyl-benzamide]	71%
CC1CCC(C2=NC3(CN(S(=O)(=O)CCc4cccc5ccccc45)C3)C(=O)N2)CC1 (centres unmarked) [Compound 1104, 6-(4-Methyl-cyclohexyl)-2-(2-naphthalen-1-yl-ethanesulfonyl)-2,5,7-triaza-spiro[3.4]oct-5-en-8-one]	16%
O=C1NC(C2CCCCC2)=NC12CCN(S(=O)(=O)/C=C/c1cccc3cccnc13)CC2 [Compound 633, 2-Cyclohexyl-8-((E)-2-quinolin-8-yl-ethenesulfonyl)-1,3,8-triaza-spiro[4.5]dec-1-en-4-one]	37%
Cc1cc(C(=O)N(C)C)ccc1CCS(=O)(=O)N1CCC2(CC1)N=C(c1ccc(OC(F)(F)C(F)F)cc1)NC2=O [Compound 94, 3,N,N-trimethyl-4-(2-{4-oxo-2-[4-(1,1,2,2-tetrafluoro-ethoxy)-phenyl]-1,3,8-triaza-spiro[4.5]dec-1-ene-8-sulfonyl}-ethyl)-benzamide]	62%
Cc1cc(S(=O)(=O)Nc2cccnc2)ccc1/C=C/S(=O)(=O)N1CCC2(CC1)N=C(c1cccc(C(F)(F)F)c1)NC2=O [Compound 219, 3-methyl-4-{(E)-2-[4-oxo-2-(3-trifluoromethyl-phenyl)-1,3,8-triaza-spiro[4.5]dec-1-ene-8-sulfonyl]-vinyl}-N-pyridin-3-yl-benzenesulfonamide]	60%
Cc1cc(NC[C@H](O)CO)ccc1CCS(=O)(=O)N1CCC2(CC1)N=C(c1ccc(Cl)cc1)NC2=O [Compound 158, 2-(4-chloro-phenyl)-8-{2-[4-((S)-2,3-dihydroxy-propylamino)-2-methyl-phenyl]-ethanesulfonyl}-1,3,8-triaza-spiro[4.5]dec-1-en-4-one]	62%
CC(=O)N(C)c1c(C)cc(/C=C/S(=O)(=O)N2CCC3(CC2)N=C(C2CCC(C)CC2)NC3=O)cc1C (centres unmarked) [Compound 584, N-(2,6-dimethyl-4-{(E)-2-[2-(4-methyl-cyclohexyl)-4-oxo-1,3,8-triaza-spiro[4.5]dec-1-ene-8-sulfonyl]-vinyl}-phenyl)-N-methyl-acetamide]	24%
Cc1cc(N(C)C(N)=O)cc(C)c1/C=C/[S@TB3](=O)(=O)N1CCC2(CC1)N=C(c1ccc(Cl)c(C(F)(F)F)c1)NC2=O [Compound 1113, 1-(4-{(E)-2-[2-(4-chloro-3-trifluoromethyl-phenyl)-4-oxo-1,3,8-triaza-spiro[4.5]dec-1-ene-8-sulfonyl]-vinyl}-3,5-dimethyl-phenyl)-1-methyl-urea]	99%
CC1CCC(C2=NC3(CCN(S(=O)(=O)CCc4cccc5[nH]ccc45)CC3)C(=O)N2)CC1 (centres unmarked) [Compound 306, 8-[2-(1H-indol-4-yl)-ethanesulfonyl]-2-(4-methyl-cyclohexyl)-1,3,8-triaza-spiro[4.5]dec-1-en-4-one]	45%
CC(=O)NCCNS(=O)(=O)c1ccc(CCS(=O)(=O)N2CCC3(CC2)N=C(C2CCCCC2)NC3=O)c(C)c1 [Compound 664, N-(2-{4-[2-(2-cyclohexyl-4-oxo-1,3,8-triaza-spiro[4.5]dec-1-ene-8-sulfonyl)-ethyl]-3-methyl-benzenesulfonylamino}-ethyl)-acetamide]	77%
COCCN(C(N)=O)c1cc(C)c(/C=C/S(=O)(=O)N2CCC3(CC2)N=C(C2CCC(CCC(F)(F)F)CC2)NC3=O)c(C)c1 (centres unmarked) [Compound 725, 1-[3,5-dimethyl-4-((E)-2-{4-oxo-2-[4-(3,3,3-trifluoro-propyl)-cyclohexyl]-1,3,8-triaza-spiro[4.5]dec-1-ene-8-sulfonyl}-vinyl)-phenyl]-1-(2-methoxy-ethyl)-urea]	58%
